In US9775353B2, “Pesticidally active heterocyclic derivatives with sulphur containing substituents” (Syngenta Participations AG, priority 2014, dated 2017):

What was measured:
Assay type in all cases: in vivo
[1] = tested on: Myzus persicae (green peach aphid); assay: Example B8: Activity against Myzus persicae (feeding/residual contact, preventive, mixed population); conditions: foliar, 144 h, sunflower leaf discs sprayed, mixed ages, mortality 6 DAT
Method: Example B8: Activity Against Myzus persicae (Green Peach Aphid) (Feeding/Residual Contact Activity, Preventive), Mixed Population Sunflower leaf discs were placed on agar in a 24-well microtiter plate and sprayed with test solutions. After drying, the leaf discs were infested with an aphid population of mixed ages. After an incubation period of 6 DAT, samples were checked for mortality and special effects (e.g. phytotoxicity).

[2] = tested on: Plutella xylostella (diamond back moth); assay: Example B2: Activity against Plutella xylostella (larvicide, feeding/residual contact, preventive); conditions: 120 h, artificial diet, L2 larvae, larval mortality, antifeedant, growth regulation after 5 days
Method: Example B2: Activity Against Plutella xylostella (Diamond Back Moth) (Larvicide, Feeding/Residual Contact Activity, Preventive) 24-well microtiter plate (MTP) with artificial diet was treated with test solutions by pipetting. After drying, the MTPs were infested with L2 larvae (10-15 per well). After an incubation period of 5 days, samples were checked for larval mortality, antifeedant and growth regulation.

[3] = tested on: Diabrotica balteata (corn root worm); assay: Example B3: Activity against Diabrotica balteata (larvae L2 on maize sprouts, feeding/contact, preventative); conditions: 120 h, maize sprouts sprayed, larval mortality and growth regulation after 5 days
Method: Example B3: Activity Against Diabrotica balteata (Corn Root Worm) (Larvae L2 on Maize Sprouts, Feeding/Contact, Preventative) Maize sprouts, placed on an agar layer in 24 well micro titer plates were treated with test solutions by spraying. After drying, the MTPs were infested with L2 larvae (6-10 per well). After an incubation period of 5 days, samples were checked for larval mortality and growth regulation.

[4] = tested on: Euschistus heros (neotropical brown stink bug); assay: Example B10: Activity against Euschistus heros; conditions: 120 h, soybean leaf sprayed, N-2 nymphs, mortality 5 days after infestation
Method: Example B10: Activity Against Euschistus heros (Neotropical Brown Stink Bug) Soybean leaf on agar in 24-well microtiter plates were sprayed with aqueous test solutions prepared from 10,000 ppm DMSO stock solutions. After drying the leaf were infested with N-2 nymphs. The samples were assessed for mortality 5 days after infestation.

[5] = tested on: Spodoptera littoralis (Egyptian cotton leaf worm); assay: Example B1: Activity against Spodoptera littoralis (larvicide, feeding/residual contact, preventive); conditions: foliar, 72 h, cotton leaf discs sprayed, L1 larvae, mortality, repellent effect, feeding behaviour, growth regulation 3 days after treatment
Excerpt: Example B1: Activity Against Spodoptera littoralis (Egyptian Cotton Leaf Worm) (Larvicide, Feeding/Residual Contact Activity, Preventive) Cotton leaf discs were placed on agar in a 24-well microtiter plate and sprayed with test solutions. After drying, the leaf discs were infested with 5 L1 larvae. The samples were checked for mortality, repellent effect, feeding behaviour, and growth regulation 3 days after treatment (DAT).

[6] = tested on: Spodoptera littoralis (Egyptian cotton leaf worm); assay: Example B7: Activity against Spodoptera littoralis (systemic activity); conditions: 120 h, systemic via lettuce roots in agar, mortality, repellent effect, feeding behavior, growth regulation 5 days after infestation
Excerpt: Example B7: Activity Against Spodoptera littoralis (Egyptian Cotton Leaf Worm) (Systemic Activity) Test compounds were applied by pipette into 24 well plates and mixed with agar. Lettuce seeds were placed on the agar and the multi well plate is closed by another plate which contains also agar. After 7 days the roots have absorbed the compound and the lettuce has grown into the lid plate. The lettuce leaves were now cut off into the lid plate. Spodoptera eggs were pipetted through a plastic stencil on a humid gel blotting paper and the plate closed with it. The samples are checked for mortality, repellent effect, feeding behavior, and growth regulation 5 days after infestation.

[7] = tested on: Bemisia tabaci (cotton white fly); assay: Example B5: Activity against Bemisia tabaci (adulticide contact activity, preventative); conditions: foliar, 168 h, cotton leaf discs sprayed, adult white flies, mortality 7 DAT
Method: Example B5: Activity Against Bemisia tabaci (Cotton White Fly) (Adulticide Contact Activity, Preventative), Adult Cotton leaf discs were placed on agar in a 24-well microtiter plate and sprayed with test solutions. After drying, the leaf discs were infested with adult white flies. After an incubation period of 7 DAT, samples were checked for mortality and special effects (e.g. phytotoxicity).

CCS(=O)(=O)c1cc(-c2cccc(CC#N)c2)cnc1-c1nc2cc(C(F)(F)F)ncc2n1C [Compound P29]
> 80%: pest or weed control at 400 ppm [1]

CCc1ccccc1-c1cnc(-c2nc3cc(C(F)(F)F)ncc3n2C)c(S(=O)(=O)CC)c1 [Compound P38]
> 80%: pest or weed control at 400 ppm [2] | pest or weed control at 400 ppm [3]

CCS(=O)(=O)c1cc(-c2ccc(Cl)c(Cl)c2)cnc1-c1nc2cc(C(F)(F)F)ncc2n1C [Compound P6]
> 80%: pest or weed control at 400 ppm [4] | pest or weed control at 400 ppm [1] | pest or weed control at 400 ppm [2] | pest or weed control at 400 ppm [3] | pest or weed control at 400 ppm [5]
≥ 80%: pest or weed control at 12.5 ppm [6]

CCS(=O)(=O)c1cc(-c2cc(C)c(OC)c(C)c2)cnc1-c1nc2cc(C(F)(F)F)ncc2n1C [Compound P10]
> 80%: pest or weed control at 400 ppm [2] | pest or weed control at 400 ppm [3]

CCS(=O)(=O)c1cc(-c2ccc(C(F)(F)F)cc2)ccc1-c1nc2cc(C(F)(F)F)ncc2n1C [Compound P27]
≥ 80%: pest or weed control at 12.5 ppm [6]
> 80%: pest or weed control at 400 ppm [7] | pest or weed control at 400 ppm [4] | pest or weed control at 400 ppm [2] | pest or weed control at 400 ppm [3] | pest or weed control at 400 ppm [5]

CCSc1cc(-c2ccc(Cl)cc2)cnc1-c1nc2cc(C(F)(F)F)ncc2n1C [Compound P15, 2-[5-(4-chlorophenyl)-3-ethylsulfanyl-2-pyridyl]-3-methyl-6-(trifluoromethyl)imidazo[4,5-c]pyridine]
> 80%: pest or weed control at 400 ppm [4] | pest or weed control at 400 ppm [2] | pest or weed control at 400 ppm [3] | pest or weed control at 400 ppm [5]

CCS(=O)(=O)c1cc(-c2ccccc2Cl)cnc1-c1nc2cc(C(F)(F)F)ncc2n1C [Compound P12]
> 80%: pest or weed control at 400 ppm [4] | pest or weed control at 400 ppm [1] | pest or weed control at 400 ppm [2] | pest or weed control at 400 ppm [3] | pest or weed control at 400 ppm [5]

CCSc1cc(-c2ccc(C(F)(F)F)cc2)ccc1-c1nc2cc(C(F)(F)F)ncc2n1C [Compound P33]
> 80%: pest or weed control at 400 ppm [4] | pest or weed control at 400 ppm [3]

CCS(=O)(=O)c1cc(-c2cccc(-c3nnco3)c2)cnc1-c1nc2cc(C(F)(F)F)ncc2n1C [Compound P23]
> 80%: pest or weed control at 400 ppm [4] | pest or weed control at 400 ppm [1] | pest or weed control at 400 ppm [2] | pest or weed control at 400 ppm [3] | pest or weed control at 400 ppm [5]
≥ 80%: pest or weed control at 12.5 ppm [6]

CCS(=O)(=O)c1cc(-c2ccc(CC#N)cc2)cnc1-c1nc2cc(C(F)(F)F)ncc2n1C [Compound P31]
> 80%: pest or weed control at 400 ppm [1] | pest or weed control at 400 ppm [2]

CCS(=O)(=O)c1cc(-c2cc(F)ccc2F)cnc1-c1nc2cc(C(F)(F)F)ncc2n1C [Compound P11]
> 80%: pest or weed control at 400 ppm [4] | pest or weed control at 400 ppm [1] | pest or weed control at 400 ppm [2] | pest or weed control at 400 ppm [3] | pest or weed control at 400 ppm [5]

CCS(=O)(=O)c1cc(-c2ccc(Cl)cc2Cl)cnc1-c1nc2cc(C(F)(F)F)ncc2n1C [Compound P8]
> 80%: pest or weed control at 400 ppm [7] | pest or weed control at 400 ppm [1] | pest or weed control at 400 ppm [2] | pest or weed control at 400 ppm [3] | pest or weed control at 400 ppm [5]

CCSc1ccc(-c2cnc(-c3nc4cc(C(F)(F)F)ncc4n3C)c(S(=O)(=O)CC)c2)cc1 [Compound P32]
> 80%: pest or weed control at 400 ppm [4] | pest or weed control at 400 ppm [1] | pest or weed control at 400 ppm [2] | pest or weed control at 400 ppm [3] | pest or weed control at 400 ppm [5]

CCS(=O)(=O)c1cc(-c2ccc([Si](C)(C)C)cc2)cnc1-c1nc2cc(C(F)(F)F)ncc2n1C [Compound P26]
> 80%: pest or weed control at 400 ppm [2] | pest or weed control at 400 ppm [3]

CCS(=O)(=O)c1cc(-c2ccc(C(F)(F)F)cc2)cnc1-c1nc2cc(C(F)(F)F)ncc2n1C [Compound P2]
> 80%: pest or weed control at 400 ppm [7] | pest or weed control at 400 ppm [4] | pest or weed control at 400 ppm [1] | pest or weed control at 400 ppm [2] | pest or weed control at 400 ppm [3] | pest or weed control at 400 ppm [5]
≥ 80%: pest or weed control at 12.5 ppm [6]

CCS(=O)(=O)c1cc(-c2cc(F)c(F)cc2F)cnc1-c1nc2cc(C(F)(F)F)ncc2n1C [Compound P35]
≥ 80%: pest or weed control at 12.5 ppm [6]
> 80%: pest or weed control at 400 ppm [4] | pest or weed control at 400 ppm [2] | pest or weed control at 400 ppm [3] | pest or weed control at 400 ppm [5]

CCS(=O)(=O)c1cc(-c2cccc(-c3nnc(C)o3)c2)cnc1-c1nc2cc(C(F)(F)F)ncc2n1C [Compound P20]
> 80%: pest or weed control at 400 ppm [7] | pest or weed control at 400 ppm [1] | pest or weed control at 400 ppm [2] | pest or weed control at 400 ppm [5]

CCS(=O)(=O)c1cc(-c2ccc(Cl)cc2)cnc1-c1nc2cc(C(F)(F)F)ncc2n1C [Compound P1, 2-[5-(4-chlorophenyl)-3-ethylsulfonyl-2-pyridyl]-3-methyl-6-(trifluoromethyl)imidazo[4,5-c]pyridine]
≥ 80%: pest or weed control at 12.5 ppm [6]
> 80%: pest or weed control at 400 ppm [7] | pest or weed control at 400 ppm [4] | pest or weed control at 400 ppm [1] | pest or weed control at 400 ppm [2] | pest or weed control at 400 ppm [3] | pest or weed control at 400 ppm [5]

CCS(=O)(=O)c1cc(-c2cccc(Cl)c2)cnc1-c1nc2cc(C(F)(F)F)ncc2n1C [Compound P5]
> 80%: pest or weed control at 400 ppm [7] | pest or weed control at 400 ppm [4] | pest or weed control at 400 ppm [1] | pest or weed control at 400 ppm [2] | pest or weed control at 400 ppm [3] | pest or weed control at 400 ppm [5]
≥ 80%: pest or weed control at 12.5 ppm [6]

CCS(=O)(=O)c1cc(-c2ccc(Cl)cc2C)cnc1-c1nc2cc(C(F)(F)F)ncc2n1C [Compound P14, 2-[5-(4-chloro-2-methyl-phenyl)-3-ethylsulfonyl-2-pyridyl]-3-methyl-6-(trifluoromethyl)imidazo[4,5-c]pyridine]
> 80%: pest or weed control at 400 ppm [4] | pest or weed control at 400 ppm [1] | pest or weed control at 400 ppm [2] | pest or weed control at 400 ppm [3] | pest or weed control at 400 ppm [5]

CCS(=O)(=O)c1cc(-c2ccc(Cl)cc2)ccc1-c1nc2cc(C(F)(F)F)ncc2n1C [Compound P22]
≥ 80%: pest or weed control at 12.5 ppm [6]
> 80%: pest or weed control at 400 ppm [7] | pest or weed control at 400 ppm [4] | pest or weed control at 400 ppm [2] | pest or weed control at 400 ppm [3] | pest or weed control at 400 ppm [5]

CCS(=O)(=O)c1cc(-c2ccccc2OCCSC)cnc1-c1nc2cc(C(F)(F)F)ncc2n1C [Compound P30]
> 80%: pest or weed control at 400 ppm [5]

CCS(=O)(=O)c1cc(-c2cccc(C(F)(F)F)c2)cnc1-c1nc2cc(C(F)(F)F)ncc2n1C [Compound P3]
≥ 80%: pest or weed control at 12.5 ppm [6]
> 80%: pest or weed control at 400 ppm [7] | pest or weed control at 400 ppm [4] | pest or weed control at 400 ppm [1] | pest or weed control at 400 ppm [2] | pest or weed control at 400 ppm [3] | pest or weed control at 400 ppm [5]

CCS(=O)(=O)c1cc(-c2ccc(-n3cccn3)cc2)cnc1-c1nc2cc(C(F)(F)F)ncc2n1C [Compound P37]
> 80%: pest or weed control at 400 ppm [4] | pest or weed control at 400 ppm [1] | pest or weed control at 400 ppm [2] | pest or weed control at 400 ppm [3] | pest or weed control at 400 ppm [5]

CCS(=O)(=O)c1cc(-c2ccccc2SC)cnc1-c1nc2cc(C(F)(F)F)ncc2n1C [Compound P28]
> 80%: pest or weed control at 400 ppm [1] | pest or weed control at 400 ppm [2] | pest or weed control at 400 ppm [3]

CCS(=O)(=O)c1cc(-c2ccc(OC)c(F)c2)cnc1-c1nc2cc(C(F)(F)F)ncc2n1C [Compound P9]
> 80%: pest or weed control at 400 ppm [1] | pest or weed control at 400 ppm [2] | pest or weed control at 400 ppm [3] | pest or weed control at 400 ppm [5]
